The assay relates to 379773-124-R-J2-PDC complex spheroids, viability % test/control. As to the kind of experiment: Anticancer human tumor 379773-124-R-J2-PDC patient-derived endometrial carcinoma cell line growth inhibition [CLK]. Particulars: for viability, T/C: stronger effect = lower value. The gist of the method: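 Multi-cell-type spheroids combined patient-derived tumor cells with HUVEC endothelial cells and human mesenchymal stem cells. Paired agents were dosed in half-log steps down from about clinical Cmax, or from 10 microM where Cmax was unknown.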

[1] abbreviates: curve of first compound, second compound 0.0316 µM.
[2] abbreviates: curve of first compound, second compound 0.1 µM.
[3] abbreviates: curve of first compound, second compound 0.316 µM.
[4] abbreviates: curve of first compound, second compound 1 µM.
Setting [5] is: curve of first compound, second compound 3.16 µM.
The mark [6] stands for this setting: curve of first compound, second compound 10 µM.
The mark [7] stands for this setting: second compound 0.0316 µM, first compound 0.0316 µM.
Where [8] appears, read: second compound 0.0316 µM, first compound 0.1 µM.
The mark [9] stands for this setting: second compound 0.0316 µM, first compound 0.316 µM.
Setting [10] is: second compound 0.0316 µM, first compound 1 µM.
Setting [11] is: second compound 0.0316 µM, first compound 3.16 µM.
Setting [12] is: second compound 0.0316 µM, first compound 10 µM.
Where [13] appears, read: second compound 0.1 µM, first compound 0.0316 µM.
[14] abbreviates: second compound 0.1 µM, first compound 0.1 µM.
Setting [15] is: second compound 0.1 µM, first compound 0.316 µM.
The mark [16] stands for this setting: second compound 0.1 µM, first compound 1 µM.
Setting [17] is: second compound 0.1 µM, first compound 3.16 µM.
[18] abbreviates: second compound 0.1 µM, first compound 10 µM.
[19] abbreviates: second compound 0.316 µM, first compound 0.0316 µM.
The mark [20] stands for this setting: second compound 0.316 µM, first compound 0.1 µM.
Where [21] appears, read: second compound 0.316 µM, first compound 0.316 µM.
[22] abbreviates: second compound 0.316 µM, first compound 1 µM.
The mark [23] stands for this setting: second compound 0.316 µM, first compound 3.16 µM.
The mark [24] stands for this setting: second compound 0.316 µM, first compound 10 µM.
Setting [25] is: second compound 1 µM, first compound 0.0316 µM.
[26] abbreviates: second compound 1 µM, first compound 0.1 µM.
[27] abbreviates: second compound 1 µM, first compound 0.316 µM.
[28] abbreviates: second compound 1 µM, first compound 1 µM.
[29] abbreviates: second compound 1 µM, first compound 3.16 µM.
[30] abbreviates: second compound 1 µM, first compound 10 µM.
The mark [31] stands for this setting: second compound 3.16 µM, first compound 0.0316 µM.
Where [32] appears, read: second compound 3.16 µM, first compound 0.1 µM.
[33] abbreviates: second compound 3.16 µM, first compound 0.316 µM.
Where [34] appears, read: second compound 3.16 µM, first compound 1 µM.
The mark [35] stands for this setting: second compound 3.16 µM, first compound 3.16 µM.
Where [36] appears, read: second compound 3.16 µM, first compound 10 µM.
Setting [37] is: second compound 10 µM, first compound 0.0316 µM.
The mark [38] stands for this setting: second compound 10 µM, first compound 0.1 µM.
[39] abbreviates: second compound 10 µM, first compound 0.316 µM.
Setting [40] is: second compound 10 µM, first compound 1 µM.
[41] abbreviates: second compound 10 µM, first compound 3.16 µM.
[42] abbreviates: second compound 10 µM, first compound 10 µM.

“And” between values parts separate entries of the source, which are not always exact repeats. Equal entries are not always repeated. Where only a bound is given, the exact number is not on record here.

The values that follow come from PubChem BioAssay AID2060604 (Molecular Pharmacology Branch, DTP, NCI, 2025).
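Also: compound exposure lasted seven days before the viability readout.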
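For viability, T/C in this document: 100% = DMSO vehicle control wells.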

Turning to `COc1cccc2c1C(=O)c1c(O)c3c(c(O)c1C2=O)CC(O)(C(=O)CO)CC3OC1CC(N)C(O)C(C)O1` (stereo not given) + CNC(=O)c1ccc(Nc2nc(OC3CCCC3)c3c(-c4ccc5nc(C)oc5c4)c[nH]c3n2)c(OC)c1, the concentration for half-maximal inhibition (IC50) is under 31.6 nM under setting [1]; under 31.6 nM under setting [2]; under 31.6 nM under setting [3]; under 31.6 nM under setting [4]; under 31.6 nM under setting [5]; under 31.6 nM under setting [6]. The viability, T/C is, setting by setting: under setting [7], 31.1%; under setting [8], 6.01%; under setting [9], 5.35%; under setting [10], 3.7%; under setting [11], 0.43%; under setting [12], 0.22%. Further, the viability, T/C was 22.6% under setting [13]; 6.93% under setting [14]; 5.94% under setting [15]; 3.46% under setting [16]; 0.36% under setting [17]; 0.17% under setting [18]. The viability, T/C is, setting by setting: under setting [19], 25.9%; under setting [20], 4.93%; under setting [21], 3.63%; under setting [22], 2.73%; under setting [23], 0.13%; under setting [24], 0.11%. The viability, T/C is 17.8% under setting [25]; 4.68% under setting [26]; 3.73% under setting [27]; 1.18% under setting [28]; 0.15% under setting [29]; 0.06% under setting [30]. The viability, T/C runs as follows: under setting [31], 12%; under setting [32], 5.12%; under setting [33], 3.67%; under setting [34], 1.27%; under setting [35], 0.08%; under setting [36], 0.12%. Further, the viability, T/C is 9.36% under setting [37]; 5.57% under setting [38]; 3.11% under setting [39]; 1.07% under setting [40]; 0.14% under setting [41]; 0.23% under setting [42].
Consider `Nc1ccccc1NC(=O)c1ccc(CNC(=O)OCc2cccnc2)cc1`, for which the viability, T/C (compound 0.0316 µM) was 108% and 92.4%; the viability, T/C (compound 0.1 µM) was 100% and 89.7%; the viability, T/C (compound 0.316 µM) was 95.6% and 104%; the viability, T/C (compound 1 µM) was 102% and 96.7%; the viability, T/C (compound 3.16 µM) is 47.8% and 45.6%; the viability, T/C (compound 10 µM) was 8.85% and 7.74%. Further, the IC50 (curve of compound) was 3020 nM and 2860 nM.
Regarding `CC(CO)NC(=O)c1cc(-c2ccc(Cl)cc2)nn(-c2cnn(C)c2)c1=O` (stereo not given), the viability, T/C by setting is: (compound 0.0316 µM) 98.9% and 90.2%; (compound 0.1 µM) 83.6% and 92.8%; (compound 0.316 µM) 84.6% and 97.6%; (compound 1 µM) 68% and 85.8%; (compound 3.16 µM) 88.3% and 95.1%; (compound 10 µM) 72.3% and 68.5%. Also, the IC50 (curve of compound) is over 10000 nM.
For `CC1COCCN1c1cc(C2(S(C)(=N)=O)CC2)nc(-c2ccnc3[nH]ccc23)n1` (stereo not given), the viability, T/C is 90.7% and 97.2% (compound 0.0316 µM); 80.4% and 89.4% (compound 0.1 µM); 70.8% and 87.9% (compound 0.316 µM); 88.6% and 74.2% (compound 1 µM); 44.8% and 47.4% (compound 3.16 µM); 11.5% and 10.6% (compound 10 µM). For the same compound, under “curve of compound”, the IC50 was 2700 nM and 2870 nM.
Consider `C=C(F)C(=O)N1CCN(c2nc(OCC3CCCN3C)nc3c2CCN(c2cccc4cccc(Cl)c24)C3)CC1CC#N` (stereo not given) + CNC(=O)c1ccc(Nc2nc(OC3CCCC3)c3c(-c4ccc5nc(C)oc5c4)c[nH]c3n2)c(OC)c1, for which the IC50 by setting is: under setting [1], 2020 nM; under setting [2], under 31.6 nM; under setting [3], under 31.6 nM; under setting [4], under 31.6 nM; under setting [5], under 31.6 nM; under setting [6], under 31.6 nM. Also, the viability, T/C runs as follows: under setting [7], 69.1%; under setting [8], 63.1%; under setting [9], 72.3%; under setting [10], 78%; under setting [11], 36.7%; under setting [12], 0.16%. Further, the viability, T/C was 35.7% under setting [13]; 42.1% under setting [14]; 42.7% under setting [15]; 39.8% under setting [16]; 26.7% under setting [17]; 0.13% under setting [18]. For the same compound, the viability, T/C is, setting by setting: under setting [19], 37.1%; under setting [20], 41.4%; under setting [21], 32.4%; under setting [22], 39%; under setting [23], 16.2%; under setting [24], 0.17%. Besides, the viability, T/C was 25.5% under setting [25]; 31.4% under setting [26]; 34.9% under setting [27]; 34.5% under setting [28]; 10.4% under setting [29]; 0.13% under setting [30]. Moreover, the viability, T/C is, setting by setting: under setting [31], 30.2%; under setting [32], 35.3%; under setting [33], 35.7%; under setting [34], 35%; under setting [35], 14.3%; under setting [36], 2.42%. Further, the viability, T/C by setting is: under setting [37], 31.6%; under setting [38], 32.9%; under setting [39], 27.7%; under setting [40], 27.3%; under setting [41], 9.27%; under setting [42], 0.53%.
